We go through 79 compounds from the METLIN SMRT retention time set (Domingo-Almenara et al. 2019).

The series can be described thus: gradient 5% acetonitrile 3 min, to 50% in 2 min, to 85% in 15 min, held 3 min, 100 µL/min. Conditions: column: Zorbax Extend-C18 2.1 x 50 mm; eluents: water / acetonitrile, 0.1% formic acid. Put shortly: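 Pure standards were run in mixtures of ~100 molecules by HPLC coupled to a quadrupole time-of-flight mass spectrometer. The column was a Zorbax Extend-C18 (2.1 × 50 mm, 1.8 μm) at 100 μL/min, with water and acetonitrile each containing 0.1% formic acid, in positive and negative ionization mode. Dead and dwell volumes were 40 μL and 900 μL. Retention time was taken from computationally picked adduct peaks, each manually inspected, with data collected over 3 months.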
Compound `Cc1ccc(NCCCc2ccccc2)c(N)c1` yielded an RP-LC retention time of 728 s.
On to `COc1cc(C(=O)Nc2ncc(Cc3cccc4ccccc34)s2)cc(OC)c1OC`, for which the RP-LC retention time stood at 1030 s.
With `CCn1c(-c2cccc(C(=O)NC3CCCCC3)c2)nc2cccnc21` the figure was 780 s.
With `CC(C)CC(=O)Nc1ccc(N2CCN(CC(=O)N(C)C)CC2)cc1C(=O)O` the figure was 595 s; with `CCNC(=O)c1c2c(nc3ccc(F)cc13)CCC2`, 613 s; with `CCOC(=O)C1CCN(C(=O)C2CCN(c3cncnc3N3CCCC3)CC2)CC1`, 629 s.
With `O=C(CCc1ccc2[nH]ccc2c1)NCc1ccc(F)cc1` the figure was 793 s; with `CCNc1nc(-c2nnc(-c3cccc(C)c3)o2)nc2ccccc12`, 932 s.
In turn, `CCCCn1cc(S(=O)(=O)Nc2ccc(C)cc2)c2cccnc21` returned an RP-LC retention time of 943 s.
In turn, `Cc1cccc(-n2c(=O)c3c(cc(C)n3C)n(CC(=O)Nc3ccc(C)cc3C)c2=O)c1` displayed an RP-LC retention time of 912 s.
`CS(=O)(=O)N1CCCc2cc(C(=O)NCCN3CCOCC3)ccc21` came in with an RP-LC retention time of 573 s.
With `O=C(CN1C(=O)C2CCCCN2c2ccc(C(=O)N3CCCC3)cc21)NCc1ccc(F)cc1Cl` (centres undefined) the figure was 863 s; with `COC(=O)c1ccccc1Nc1c(-c2ccccn2)nc2cnccn12`, 816 s.
As for `Clc1ccc(-c2cn3cccnc3n2)cc1`, the RP-LC retention time is 662 s.
With `COc1cccc(CN2CCC3(CC2)NCCc2c3[nH]c3ccccc23)c1` the figure was 583 s; with `CCc1ccc(C(=O)Nc2ccc3c(c2)Sc2ncccc2C(=O)N3CC)cc1`, 936 s; with `Cc1ccc(Nc2c(-c3ccc(Cl)cc3)nc3cnccn23)c(Br)c1`, 1170 s.
`CCCCCCNC(=O)C1CCCN(c2ncc(-c3ccc(F)cc3)cn2)C1` (centres undefined) came in with an RP-LC retention time of 1160 s.
With `COc1ccc(NC(=O)Cc2nnc(-c3ccc4ncccc4c3)o2)cc1OC` the figure was 655 s.
With `CCOC(=O)c1c(C)[nH]c(C(=O)N2CCCC(C(=O)NCc3ccc4c(c3)OCO4)C2)c1C` (centres undefined) the figure was 770 s; with `O=S(=O)(NCC1Cn2cccc2CN1Cc1ccccc1)c1ccccc1` (centres undefined), 763 s.
In the case of `CC(=O)OC[C@@]1(O)C[C@@]23CC[C@@H]4c5ccoc5C=C[C@@]4(C)[C@@H]2CC[C@@H]1C3` it was 715 s; in that of `CCOC(=O)Cc1sc(Nc2nc3ccccc3s2)nc1-c1ccccc1`, 1170 s.
In turn, `Cc1cc2ccccc2n2c(SCC(=O)NCC3CCCO3)nnc12` (centres undefined) registered an RP-LC retention time of 628 s.
`CC(C)n1cc(CN2CC(F)(F)C[C@H]2COc2cccnc2)c2ccccc21`: the RP-LC retention time came out at 698 s.
Compound `COc1ccc2c(c1)C13CCN(C)C(C2)C1CCC1(C3)OCCO1` (centres undefined) yielded an RP-LC retention time of 645 s.
In the case of `CCC1CN(C(=O)N2CCC(C(=O)NCc3ccco3)CC2)c2cc(C)ccc2O1` (centres undefined) it was 872 s; in that of `Cc1cc2c(cc1S(=O)(=O)N1CCCC1C(=O)NCc1ccccc1Cl)OCC(=O)N2` (centres undefined), 791 s.
With `CCc1nc(-c2csc(S(=O)(=O)N3CCCC(C(=O)Nc4ccccc4F)C3)c2)no1` (centres undefined) the figure was 1010 s; with `CCn1c(=O)sc2cc(S(=O)(=O)N3CCC(C(=O)NC4CCC(C)CC4)CC3)ccc21` (centres undefined), 967 s; with `CC1CCN(c2cc(-n3cnc(C(=O)N4CCCCCC4)c3)ncn2)CC1`, 1010 s.
`COc1ccc(C2CC(=O)N(c3ccc(C(C)C)cc3)C(=O)C2)cc1` showed an RP-LC retention time of 1030 s.
For `CC(=O)c1ccc(NC(=O)Cn2c(N3CCc4ccccc4C3)nc(C)cc2=O)cc1`, the RP-LC retention time worked out at 727 s.
In the case of `O=C(NCCC1=CCCCC1)c1ccc2ccnc(N3CCN(c4ccccc4)CC3)c2c1` it was 958 s.
The compound `CCOC(=O)c1ccc(S(=O)(=O)NCCCn2nc(-c3ccncc3)ccc2=O)cc1` registered an RP-LC retention time of 592 s.
With `CCN(CC)C(=O)c1ccc2c(c1)N(CC(=O)N1CCCCC1)C(=O)CO2` the figure was 691 s; with `CCn1nnc2ccc(-c3noc(-c4cccc(C#N)c4)n3)cc21`, 957 s.
With `COC(=O)c1ccc2c(c1)nnn2Cc1ccc(F)cc1` the figure was 916 s; with `CCc1cc(C(=O)Nc2ccccc2C)nc2ccnn12`, 1010 s.
With `O=C(CN1CCN(C(=O)Nc2ccc(Br)cc2)CC1=O)NC1CCCCC1` the figure was 735 s; with `COc1ccc(-n2ccn3cc(-c4ccc(F)cc4)nc3c2=O)cc1`, 790 s.
`O=C(NC1CCCCC1)c1ccc(Nc2c(-c3ccc(Cl)cc3)nc3cnccn23)cc1` displayed an RP-LC retention time of 909 s.
In turn, `C=CCn1nc2c(C)c(C)nc(-c3cccnc3)n2c1=O` registered an RP-LC retention time of 631 s.
With `O=C(NCC(c1cccs1)S(=O)(=O)c1ccc(F)cc1)c1nc2ccccc2s1` (centres undefined) the figure was 948 s; with `CCOC(=O)c1nc(NCCN2CCCc3ccccc32)c2ccccc2n1`, 729 s.
Regarding `CC1=C(c2ccccc2)S(=O)(=O)N=C1N1CCC(NC(=O)NCC(C)C)CC1`, the RP-LC retention time came to 790 s.
For `CCOc1ccc(Nc2cc(C(=O)N3CCCC(C)C3)nc3ccc(C)cc23)cc1` (centres undefined), the RP-LC retention time was found to be 776 s.
With `O=C(C1CCCN(c2ccc(Sc3ccc(Br)cc3)nn2)C1)N1CCSCC1` (centres undefined) the figure was 932 s; with `CCn1nnc2c(N3CCOCC3)nc(-c3ccc(NC(=O)Nc4ccc(C(=O)N5CCN(C)CC5)cc4)cc3)nc21`, 690 s; with `O=C(c1cc2ccccc2o1)N1CCC(CNS(=O)(=O)Cc2ccccc2Cl)CC1`, 880 s.
In the case of `COC(=O)CNC(=O)NCCn1c(-c2ccc(F)cc2)nc2ccccc21` it was 696 s.
Compound `Cc1ccccc1-c1nc(-c2ccc(S(=O)(=O)N3CCOCC3)cc2)no1` yielded an RP-LC retention time of 1170 s.
In the case of `CNC(=O)[C@@H]1CN(C(=O)CCc2nc3ccccc3s2)C[C@H]1c1n[nH]c(C)n1` it was 607 s.
In turn, `COc1c(C)cnc(Cn2cnc3c(Cl)nc(N)nc32)c1C` yielded an RP-LC retention time of 638 s.
In the case of `COc1ccc2cccc(C(=N)c3ccc(C)c4c3CCC4)c2c1` it was 747 s.
`Cc1c(C(=O)N2CCN(c3ccc(F)cc3)CC2)sc2nc[nH]c(=O)c12` showed an RP-LC retention time of 706 s.
Take `CC(C)Oc1ccc(-c2noc(CN3N=NC4C(=O)N(c5cccc(F)c5)C(=O)C43)n2)cc1` (centres undefined): the RP-LC retention time is 1050 s.
In the case of `C=CCNC(=O)CCc1c(-c2ccc(Cl)cc2)nc2ccccn12` it was 615 s.
In the case of `Cc1cc(Cl)ccc1S(=O)(=O)N1CCN(C2CCN(Cc3ccccn3)C2=O)CC1` (centres undefined) it was 608 s; in that of `COCCc1noc(-c2ccc(=O)n(CC(=O)Nc3ccccc3F)c2)n1`, 695 s.
With `Cc1nn2c(CNC(=O)c3ccccn3)c(-c3ccccc3)nc2s1` the figure was 796 s.
`O=C(NC1CC1)c1cccc(OCC2CCCN(C(=O)C3CCCO3)C2)c1` (centres undefined) displayed an RP-LC retention time of 689 s.
`CN1CCN(c2ncc3c(n2)CC(c2cc(F)cc(F)c2)CC3=O)CC1` (centres undefined): the RP-LC retention time was 660 s.
With `COc1ccccc1-c1nnc(-c2ccc(-n3ccnc3)nc2)o1` the figure was 614 s; with `Cc1ccc(C(=O)Nc2nc(-c3ccc4c(c3)N(C)C(=O)CO4)cs2)cc1`, 952 s.
In the case of `Cc1ccc(CNC(=O)Cn2c(N(C)Cc3ccccc3)nc(C)cc2=O)cc1` it was 778 s; in that of `CCc1ccc(NC(=O)NC2CCN(c3ccc(F)c(C)c3)C2=O)cc1` (centres undefined), 905 s; in that of `COc1cc(-c2ccc(F)cc2)nc2ccc(NS(=O)(=O)c3ccccc3)cc12`, 754 s.
Consider `CCOC(=O)c1c(C)c(C(=O)OCC)n(C)c1C`, for which the RP-LC retention time stood at 1080 s.
With `CN(CCc1noc(COc2ccccc2F)n1)C(=O)CCc1ccccc1` the figure was 931 s; with `Cc1noc(-c2ccc(OC3CN(C(=O)Cc4cccs4)C3)cc2)n1`, 857 s.
Regarding `O=C(Nc1ccc(N2CCN(c3ccccc3)C2=O)nc1)c1ccc(F)cc1`, the RP-LC retention time is 934 s.
In the case of `COc1ccccc1-c1csc(NC(=O)c2sc(-c3ccccc3)nc2C)n1` it was 1250 s.
With `CCCc1noc(-c2ccnc(-n3ncc(C(=O)Nc4ccc(Cl)cc4)c3C)c2)n1` the figure was 1270 s.
In the case of `CCC1Oc2ccc(S(=O)(=O)N3CCC(C(=O)Nc4cc(C)ccc4C)CC3)cc2NC1=O` (centres undefined), the RP-LC retention time was 837 s.
With `CC1CCC(NC(=O)C2CCN(S(=O)(=O)c3ccc4c(c3)sc(=O)n4C)CC2)CC1` (centres undefined) the figure was 896 s.
Regarding `O=C(c1ccc2ncnc(N3CCCC3)c2c1)N1CCCCC1`, the RP-LC retention time was 577 s.
With `Cc1sc(-c2nc(-c3ccccc3)no2)cc1S(=O)(=O)N1CCN(c2ncccn2)CC1` the figure was 1210 s.
Take `O=c1c2sccc2n(Cc2nc(-c3ccccc3Cl)no2)c(=O)n1Cc1ccc(F)cc1`: the RP-LC retention time turned out to be 1110 s.
